We go through 13 compounds from patent US10030027B2, “Soluble guanylate cyclase stimulators” (MERCK SHARP & DOHME CORP., priority 2015, dated 2018).

For one experiment, the target named is sGC α1/β1 heterodimer (Homo sapiens (Human), UniProt Q02108+Q02153). Briefly: Cell-based sGC functional assay (cyclic GMP assay for sGC activator: CASA assay). Conditions: CHO-K1/sGC cells; for Emax: CHO-K1, activity expressed as percentage of compound A (standard), read-out: % Activation; for EC50: inflection point, 4P fit, read-out: IP. The method in brief:
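CHO-K1 cells stably expressing sGC α1/β1 were pre-incubated with or without 1 μM DETA-NO (30 min, 25 °C), then exposed to compounds for 1 hr at 37 °C with 0.5 mM IBMX. Intracellular cGMP was read by HTRF and expressed as a percentage of a reference heme-dependent activator's maximum.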

The target in experiment [1] is human recombinant sGC enzyme (Homo sapiens (Human), UniProt Q02108+Q02153). As to the kind of experiment: Size Exclusion Chromatography (SEC) competition binding assay using [3H] Ex-77B as the radioligand. Conditions: [3H] Ex-77B radioligand, 24 hours at 37° C. The method in brief: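 Recombinant human sGC binding measured by competition against tritiated Ex-77B radioligand, with non-specific binding defined by 1 μM unlabeled Ex-77B.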

The test system of experiment [2] is hypoxia-induced pulmonary hypertension rat. As to the kind of experiment: Acute efficacy in hypoxia-induced pulmonary hypertension in rat following intratracheal administration. In kind it is in vivo. The source says:
Acute Efficacy in Hypoxia-Induced Pulmonary Hypertension in Rat Following Intratracheal Administration Charles River Sprague-Dawley (CD) male rats weighing approximately 350 g were implanted with HD-S21 dual pressure telemetry transmitters (Data Sciences International (DSI)) into the pulmonary artery and femoral artery. This transmitter enables simultaneous measurement of both pulmonary and systemic hemodynamic parameters in the same animal. After a 7-10 day post-operative recovery period, animals were subjected to a normobaric hypoxic (10% oxygen) environment using a Higher Peak Mountain Air Generator (MAG-10) connected to a modified rodent cage via a fitted inlet port. Oxygen (at 10%), temperature, humidity, and CO2 were controlled within normal range and animals were maintained on a 12 hour light-dark cycle with ad libitum access to food and water. After two weeks exposure to 10% O2 hypoxic environment, systolic pulmonary arterial pressure readings increased from 25 mmHg to greater than 50 mmHg. Using a 48 hour baseline average, animals with readings between 50-110 mmHg (standard deviation of less than 10 mmHg) and minimal changes in systolic systemic blood pressure were enrolled for study. Animals were utilized for up to 2 studies per week for 4 weeks with a minimum of 2 days washout between doses of test agent. Compound or vehicle was administered intra-tracheally under light isoflurane anesthesia (5% in oxygen; flow rate 2.0 L/min for 3 minutes). Once anesthetized, rats were placed on an angled intubation stand in supine position and the trachea visualized using a small laryngoscope. Animals then received either 0.5 mL/kg of vehicle or 0.5 mL/kg vehicle containing compound intra-tracheally delivered via microsprayer by use of a Penn-Century Microsprayer® needle 3″ (Model IA-1B-GP) attached to a 1 mL high pressure syringe (Penn Century-Model B-SYR-PL1000) (Penn-Century, Philadelphia, Pa.). The Microsprayer® tip was inserted into the trachea up to the point at which the bend in the needle is close to the tip of the snout, which positions the tip of the Microsprayer® in front of the carina (bifurcation of trachea at the bronchi). After dose delivery the animal is placed on its back in the home cage for recovery. Hemodynamic measurements were continuously recorded and readings consolidated to hourly moving averages. Each animal received a vehicle on Day 1 followed by vehicle or test agent on Day 2. Change from vehicle baseline was calculated by subtracting the hourly Day 1 vehicle response from the hourly Day 2 response and treatment group data was expressed as mean±SEM. Decreases of systolic blood pressure (SBP) and systolic pulmonary arterial pressure (PAP) were measured at a particular IT dose (mpk milligrams per kilogram) for the following Example compounds.

As for `CC1(c2nc(CCC(F)(F)C(=O)O)co2)C(=O)Nc2nc(-c3nn(Cc4ccccc4F)c4cc(Cl)ccc34)nc(N)c21` (stereo not shown) [Example 127A, 4-(2-{4-amino-2-[6-chloro-1-(2-fluorobenzyl)-1H-indazol-3-yl]-5-methyl-6-oxo-6,7-dihydro-5H-pyrrolo[2,3-d]pyrimidin-5-yl}-1,3-oxazol-4-yl)-2,2-difluorobutanoic acid], on sGC α1/β1 heterodimer, the Emax amounted to 117% and the EC50 came out at 52 nM. The inhibition constant (Ki) in experiment [1] was found to be 0.057 nM. Besides, the “Category: decrease in SBP (at minimum decrease in PAP of ≥15 mmHg)” value (“Category: decrease in SBP” for short) in experiment [2] (Dose IT 0.03 mpk) is recorded as “A (decrease in SBP 0-5 mmHg)”.
On the same counts, the results for `CC(C)(Cc1cccc(C2(C)C(=O)Nc3nc(-c4nn(CCC(F)(F)C(F)(F)F)c5ncccc45)nc(N)c32)c1)C(=O)O` (stereo not shown) [Example 11B, 3-(3-{4-Amino-5-methyl-6-oxo-2-[1-(3,3,4,4,4-pentafluorobutyl)-1H-pyrazolo[3,4-b]pyridin-3-yl]-6,7-dihydro-5H-pyrrolo[2,3-d]pyrimidin-5-yl}phenyl)-2,2-dimethylpropanoic acid] are 99%, 537 nM, 0.304 nM and “B (decrease in SBP 5-10 mmHg)”.
`C[C@@]1(c2ccc(CCC(=O)O)cc2)C(=O)Nc2nc(-c3nn(Cc4ccccc4F)c4cc(Cl)ccc34)nc(N)c21` [Example 47B, (S)-3-(4-{4-amino-2-[6-chloro-1-(2-fluorobenzyl)-1H-indazol-3-yl]-5-methyl-6-oxo-6,7-dihydro-5H-pyrrolo[2,3-d]pyrimidin-5-yl}phenyl)propanoic acid]: on sGC α1/β1 heterodimer, the Emax was 88% and the EC50 was 218 nM. The inhibition constant (Ki) in experiment [1] is 0.114 nM. The “Category: decrease in SBP” value in experiment [2] (Dose IT 0.03 mpk) is “A (decrease in SBP 0-5 mmHg)”.
For `C[C@@]1(c2ccc(CCc3nn[nH]n3)cc2)C(=O)Nc2nc(-c3nn(Cc4ccccc4F)c4cc(Cl)ccc34)nc(N)c21` [Example 112B, (S)-4-Amino-2-[6-chloro-1-(2-fluorobenzyl)-1H-indazol-3-yl]-5-methyl-5-{4-[2-(2H-tetrazol-5-yl)ethyl]phenyl}-5,7-dihydro-6H-pyrrolo[2,3-d]pyrimidin-6-one], at sGC α1/β1 heterodimer, the Emax worked out at 130% and the EC50 was 2520 nM. The Ki in experiment [1] came out at 0.066 nM. The “Category: decrease in SBP” value in experiment [2] (Dose IT 0.01 mpk) is reported as “A (decrease in SBP 0-5 mmHg)”.
Regarding `CC(C)(Cc1coc(C2(C)C(=O)Nc3nc(-c4nn(Cc5ccccc5F)c5cc(Cl)ccc45)nc(N)c32)n1)c1nn[nH]n1` (stereo not shown) [Example 239A, 4-amino-2-[6-chloro-1-(2-fluorobenzyl)-1H-indazol-3-yl]-5-methyl-5-{4-[2-methyl-2-(2H-tetrazol-5-yl)propyl]-1,3-oxazol-2-yl}-5,7-dihydro-6H-pyrrolo[2,3-d] pyrimidin-6-one], on sGC α1/β1 heterodimer, the Emax came to 62.3% and the EC50 stood at 350 nM. For the same compound, the Ki in experiment [1] stood at 0.068 nM. Also, the “Category: decrease in SBP” value in experiment [2] (Dose IT 0.01 mpk) is on record as “A (decrease in SBP 0-5 mmHg)”.
Taken in the same sequence, the figures for `CC(C)(Cc1coc(C2(C)C(=O)Nc3nc(-c4nn(Cc5cccc(F)c5)c5cc(F)ccc45)nc(N)c32)n1)C(=O)O` (stereo not shown) [Example 195A, 3-(2-{4-amino-2-[6-fluoro-1-(3-fluorobenzyl)-1H-indazol-3-yl]-5-methyl-6-oxo-6,7-dihydro-5H-pyrrolo[2,3-d]pyrimidin-5-yl}-1,3-oxazol-4-yl)-2,2-dimethyl-propanoic acid] were 103%, 194 nM, 0.092 nM and “B (decrease in SBP 5-10 mmHg)”.
On to `CC(C)(Cc1csc([C@]2(C)C(=O)Nc3nc(-c4nn(Cc5ccccc5F)c5cc(Cl)ccc45)nc(N)c32)n1)C(=O)O` [Example 95B, (S)-3-(2-{4-amino-2-[6-chloro-1-(2-fluorobenzyl)-1H-indazol-3-yl]-5-methyl-6-oxo-6,7-dihydro-5H-pyrrolo[2,3-d]pyrimidin-5-yl}-1,3-thiazol-4-yl)-2,2-dimethylpropanoic acid], for which, on sGC α1/β1 heterodimer, the Emax turned out to be 118% and the EC50 was 157 nM. Also, the Ki in experiment [1] was determined as 0.06 nM. Moreover, in experiment [2] (Dose IT 0.03 mpk), the “Category: decrease in SBP” value is given as “A (decrease in SBP 0-5 mmHg)”.
For the compound `CC(C)(Cc1coc(C2(C)C(=O)Nc3nc(-c4nn(CC5CCCCC5)c5cc(F)ccc45)nc(N)c32)n1)C(=O)O` (stereo not shown) [Example 202A, 3-(2-{4-amino-2-[1-(cyclohexyl-methyl)-6-fluoro-1H-indazol-3-yl]-5-methyl-6-oxo-6,7-dihydro-5H-pyrrolo[2,3-d]pyrimidin-5-yl}-1,3-oxazol-4-yl)-2,2-dimethyl-propanoic acid], on sGC α1/β1 heterodimer, the Emax came out at 122% and the EC50 is 212 nM. The inhibition constant Ki in experiment [1] came to 0.186 nM. Further, the “Category: decrease in SBP” value in experiment [2] (Dose IT 0.01 mpk) is “A (decrease in SBP 0-5 mmHg)”.
Turning to `CC1(c2ccc(CCC(=O)O)cn2)C(=O)Nc2nc(-c3nn(CCC(F)(F)C(F)(F)F)c4cc(Cl)ccc34)nc(N)c21` (stereo not shown) [Example 119B, 3-(6-{4-Amino-2-[6-chloro-1-(3,3,4,4,4-pentafluorobutyl)-1H-indazol-3-yl]-5-methyl-6-oxo-6,7-dihydro-5H-pyrrolo[2,3-d]pyrimidin-5-yl}pyridin-3-yl)propanoic acid], at sGC α1/β1 heterodimer, the Emax came to 103% and the EC50 is 839 nM. The Ki in experiment [1] came out at 0.292 nM. In addition, in experiment [2] (Dose IT 0.03 mpk), the “Category: decrease in SBP” value is “A (decrease in SBP 0-5 mmHg)”.
On the same counts, the results for `C[C@@]1(c2ccc(CCC(=O)O)cc2)C(=O)Nc2nc(-c3nn(CC4CC(F)(F)C4)c4cc(Cl)ccc34)nc(N)c21` [Example 163B, (S)-3-{4-[4-amino-2-{6-chloro-1-[(3,3-difluorocyclo-butyl)methyl]-1H-indazol-3-yl}-5-methyl-6-oxo-6,7-dihydro-5H-pyrrolo[2,3-d]pyrimidin-5-yl]phenyl}propanoic acid] are 90.8%, 408 nM, 1.85 nM and “C (decrease in SBP>10 mmHg)”.
On to `CC(C)(Cc1coc(C2(C)C(=O)Nc3nc(-c4nn(Cc5ccccc5F)c5cc(Cl)ccc45)nc(N)c32)n1)C(=O)O` (stereo not shown) [Example 3A, 3-(2-{4-amino-2-[6-chloro-1-(2-fluorobenzyl)-1H-indazol-3-yl]-5-methyl-6-oxo-6,7-dihydro-5H-pyrrolo[2,3-d]pyrimidin-5-yl)oxazol-4-yl}-2,2-dimethyl-propanoic acid], for which, on sGC α1/β1 heterodimer, the Emax is 126% and the EC50 came to 183 nM. In addition, the inhibition constant Ki in experiment [1] was 0.067 nM. Besides, the “Category: decrease in SBP” value in experiment [2] (Dose IT 0.01 mpk) is listed as “A (decrease in SBP 0-5 mmHg)”.
As for `CC(C)(Cc1csc([C@]2(C)C(=O)Nc3nc(-c4nn(Cc5ncccc5F)c5cc(Cl)ccc45)nc(N)c32)n1)C(=O)O` [Example 185A, (S)-3-{2-[4-amino-2-{6-chloro-1-[(3-fluoropyridin-2-yl)methyl]-1H-indazol-3-yl}-5-methyl-6-oxo-6,7-dihydro-5H-pyrrolo[2,3-d]pyrimidin-5-yl]-1,3-thiazol-4-yl}-2,2-dimethyl-propanoic acid], on sGC α1/β1 heterodimer, the Emax was determined as 110% and the EC50 came out at 426 nM. In experiment [1], the Ki amounted to 0.165 nM. Moreover, in experiment [2] (Dose IT 0.01 mpk), the “Category: decrease in SBP” value is “A (decrease in SBP 0-5 mmHg)”.
Take `CC(C)(CCc1coc(C2(C)C(=O)Nc3nc(-c4nn(Cc5ccccc5F)c5ccccc45)nc(N)c32)n1)C(=O)O` (stereo not shown) [Example 220B, 4-(2-{4-amino-2-[1-(2-fluorobenzyl)-1H-indazol-3-yl]-5-methyl-6-oxo-6,7-dihydro-5H-pyrrolo[2,3-d]pyrimidin-5-yl}-1,3-oxazol-4-yl)-2,2-dimethyl-butanoic acid]: on sGC α1/β1 heterodimer, the Emax worked out at 113% and the EC50 was 82 nM. In addition, the Ki in experiment [1] worked out at 0.087 nM. Further, the “Category: decrease in SBP” value in experiment [2] (Dose IT 0.01 mpk) is “B (decrease in SBP 5-10 mmHg)”.

The Ki is a measure of affinity in units of concentration, obtained from inhibition or displacement.
